Assay results taken from ChEMBL document CHEMBL1795238, “Structure-brain exposure relationships in rat and human using a novel data set of unbound drug concentrations in brain interstitial and cerebrospinal fluids” (J Med Chem, 2009).

Tests used:
in vivo [1] = conditions: Sprague-Dawley, rat, iv, 2 (umol/kg)/hr
Brain = conditions: rat, in vivo, iv, 4 h
clinical = conditions: human, CSF and plasma
in vitro = conditions: Sprague-Dawley, rat, plasma, iv, 2 (umol/kg)/hr
Plasma = conditions: rat, iv, 4 h
in vivo [2] = conditions: Sprague-Dawley, rat, iv, 2 (umol/kg)/hr; remark: listed apart in the source
in vivo [3] = conditions: Sprague-Dawley, rat, iv, 2 (umol/kg)/hr; remark: listed apart in the source

CC(C)(C)NC(=O)[C@@H]1C[C@@H]2CCCC[C@@H]2CN1C[C@@H](O)[C@H](Cc1ccccc1)NC(=O)[C@H](CC(N)=O)NC(=O)c1ccc2ccccc2n1
Kp at 4 h (in vivo [1]; brain): 0.08 | Vdu (Brain): 208 mL | Kp uu (clinical): 0.096 | fraction unbound at 4 h (in vitro): 0.007 | Cp(f) (Plasma): 3 nM | Kp uu at 4 h (in vivo [2]; brain): 0.055

COc1ccc(CCN(C)CCCC(C#N)(c2ccc(OC)c(OC)c2)C(C)C)cc1OC (stereo not given)
Cp(f) (Plasma): 75 nM

C=CCc1ccccc1OCC(O)CNC(C)C (stereo not given) [ALPRENOLOL]
Kp at 4 h (in vivo [1]; brain): 8.27 | Vdu (Brain): 50 mL | fraction unbound at 4 h (in vitro): 0.44 | Cp(f) (Plasma): 280 nM | Kp uu at 4 h (in vivo [2]; brain): 0.38 | Kp uu at 4 h (in vivo [3]; csf): 0.33

CN(C)CCC=C1c2ccccc2CCc2ccccc21 [AMITRIPTYLINE]
Kp at 4 h (in vivo [1]; brain and plasma): 20.1 | Vdu (Brain): 310 mL | Kp uu (clinical): 0.18 | fraction unbound at 4 h (in vitro): 0.09 | Cp(f) (Plasma): 22 nM | Kp uu at 4 h (in vivo [2]; brain and plasma): 0.73 | Kp uu at 4 h (in vivo [3]; CSF and plasma): 0.17

NCC(CC(=O)O)c1ccc(Cl)cc1 (stereo not given) [BACLOFEN]
Kp at 4 h (in vivo [1]; brain and plasma): 0.03 | Vdu (Brain): 1.7 mL | Kp uu (clinical): 0.17 | fraction unbound at 4 h (in vitro): 1 | Cp(f) (Plasma): 4200 nM | Kp uu at 4 h (in vivo [2]; brain and plasma): 0.02 | Kp uu at 4 h (in vivo [3]; CSF and plasma): 0.027

CC(NC(C)(C)C)C(=O)c1cccc(Cl)c1 (stereo not given) [BUPROPION]
Kp at 4 h (in vivo [1]; brain and plasma): 9.78 | Vdu (Brain): 16 mL | Kp uu (clinical): 2 | fraction unbound at 4 h (in vitro): 0.31 | Cp(f) (Plasma): 79 nM | Kp uu at 4 h (in vivo [2]; brain and plasma): 2 | Kp uu at 4 h (in vivo [3]; CSF and plasma): 0.49

COc1ccc2c3c1O[C@H]1[C@@H](O)C=C[C@H]4[C@@H](C2)N(C)CC[C@@]341 [CODEINE]
Kp at 4 h (in vivo [1]; brain): 2.7 | Vdu (Brain): 3.2 mL | Kp uu (clinical): 0.79 | fraction unbound at 4 h (in vitro): 0.95 | Cp(f) (Plasma): 210 nM | Kp uu at 4 h (in vivo [2]; brain): 0.89 | Kp uu at 4 h (in vivo [3]; csf): 0.54

CC(C)Nc1cccnc1N1CCN(C(=O)c2cc3cc(NS(C)(=O)=O)ccc3[nH]2)CC1 [DELAVIRDINE]
Kp at 4 h (in vivo [1]; brain): 0.03 | Vdu (Brain): 40 mL | Kp uu (clinical): 0.23 | fraction unbound at 4 h (in vitro): 0.016 | Cp(f) (Plasma): 17 nM | Kp uu at 4 h (in vivo [2]; brain): 0.043 | Kp uu at 4 h (in vivo [3]; csf): 0.051

NCC1(CC(=O)O)CCCCC1 [GABAPENTIN]
Kp at 4 h (in vivo [1]; brain and plasma): 0.64 | Vdu (Brain): 4.6 mL | Kp uu (clinical): 0.16 | fraction unbound at 4 h (in vitro): 1 | Cp(f) (Plasma): 5200 nM | Kp uu at 4 h (in vivo [2]; brain and plasma): 0.14 | Kp uu at 4 h (in vivo [3]; CSF and plasma): 0.067

COc1ccc2c(c1)c(CC(=O)O)c(C)n2C(=O)c1ccc(Cl)cc1 [INDOMETHACIN]
Kp at 4 h (in vivo [1]; brain): 0.01 | Vdu (Brain): 14 mL | Kp uu (clinical): 0.27 | fraction unbound at 4 h (in vitro): 0.01 | Cp(f) (Plasma): 200 nM | Kp uu at 4 h (in vivo [2]; brain): 0.11 | Kp uu at 4 h (in vivo [3]; csf): 0.17

C[C@H]1COc2c(N3CCN(C)CC3)c(F)cc3c(=O)c(C(=O)O)cn1c23.C[C@H]1COc2c(N3CCN(C)CC3)c(F)cc3c(=O)c(C(=O)O)cn1c23.O [LEVOFLOXACIN]
Kp at 4 h (in vivo [1]; brain and plasma): 0.17 | Vdu (Brain): 1.7 mL | Kp uu (clinical): 0.18 | fraction unbound at 4 h (in vitro): 0.82 | Cp(f) (Plasma): 590 nM | Kp uu at 4 h (in vivo [2]; brain and plasma): 0.12 | Kp uu at 4 h (in vivo [3]; CSF and plasma): 0.19

CN(C)C(=O)C(CCN1CCC(O)(c2ccc(Cl)cc2)CC1)(c1ccccc1)c1ccccc1 [LOPERAMIDE]
Kp at 4 h (in vivo [1]; brain and plasma): 0.15 | Vdu (Brain): 370 mL | fraction unbound at 4 h (in vitro): 0.06 | Cp(f) (Plasma): 54 nM | Kp uu at 4 h (in vivo [2]; brain and plasma): 0.007 | Kp uu at 4 h (in vivo [3]; CSF and plasma): 0.037

CN(Cc1cnc2nc(N)nc(N)c2n1)c1ccc(C(=O)N[C@@H](CCC(=O)O)C(=O)O)cc1 [METHOTREXATE]
Kp at 4 h (in vivo [1]; brain): 0.004 | Vdu (Brain): 0.68 mL | Kp uu (clinical): 0.062 | fraction unbound at 4 h (in vitro): 1 | Cp(f) (Plasma): 2900 nM | Kp uu at 4 h (in vivo [2]; brain): 0.006 | Kp uu at 4 h (in vivo [3]; csf): 0.007

COCCc1ccc(OCC(O)CNC(C)C)cc1 (stereo not given) [METOPROLOL]
fraction unbound at 4 h (in vitro): 0.9 | Cp(f) (Plasma): 750 nM

CN1CC[C@]23c4c5ccc(O[C@@H]6O[C@H](C(=O)O)[C@@H](O)[C@H](O)[C@H]6O)c4O[C@H]2[C@@H](O)C=C[C@H]3[C@H]1C5 [MORPHINE 3-GLUCURONIDE]
Kp at 4 h (in vivo [1]; brain and plasma): 0.007 | Vdu (Brain): 0.6 mL | Kp uu (clinical): 0.081 | fraction unbound at 4 h (in vitro): 1 | Cp(f) (Plasma): 2700 nM | Kp uu at 4 h (in vivo [2]; brain and plasma): 0.011 | Kp uu at 4 h (in vivo [3]; CSF and plasma): 0.049

CN1CC[C@]23c4c5ccc(O)c4O[C@H]2[C@@H](O[C@@H]2O[C@H](C(=O)O)[C@@H](O)[C@H](O)[C@H]2O)C=C[C@H]3[C@H]1C5 [MORPHINE GLUCURONIDE]
Kp at 4 h (in vivo [1]; brain and plasma): 0.008 | Vdu (Brain): 0.99 mL | Kp uu (clinical): 0.1 | fraction unbound at 4 h (in vitro): 0.98 | Cp(f) (Plasma): 2100 nM | Kp uu at 4 h (in vivo [2]; brain and plasma): 0.008 | Kp uu at 4 h (in vivo [3]; CSF and plasma): 0.017

CO[C@@]1(NC(=O)C(C(=O)O)c2ccc(O)cc2)C(=O)N2C(C(=O)O)=C(CSc3nnnn3C)CO[C@@H]21 (stereo not given in full) [MOXALACTAM]
Kp at 4 h (in vivo [1]; brain): 0.003 | Vdu (Brain): 0.57 mL | Kp uu (clinical): 0.41 | fraction unbound at 4 h (in vitro): 0.32 | Cp(f) (Plasma): 3800 nM | Kp uu at 4 h (in vivo [2]; brain): 0.019 | Kp uu at 4 h (in vivo [3]; csf): 0.02

CC(C)(C)NCC(O)COc1cccc2c1CC(O)C(O)C2 (stereo not given) [NADOLOL]
fraction unbound at 4 h (in vitro): 0.86 | Cp(f) (Plasma): 780 nM

O=C1CN(/N=C/c2ccc([N+](=O)[O-])o2)C(=O)N1 [NITROFURANTOIN]
Kp at 4 h (in vivo [1]; brain): 0.008 | Vdu (Brain): 1.6 mL | fraction unbound at 4 h (in vitro): 0.48 | Cp(f) (Plasma): 710 nM | Kp uu at 4 h (in vivo [2]; brain): 0.011 | Kp uu at 4 h (in vivo [3]; csf): 0.0099

CCn1cc(C(=O)O)c(=O)c2cc(F)c(N3CCNCC3)cc21 [NORFLOXACIN]
Kp at 4 h (in vivo [1]; brain): 0.07 | Vdu (Brain): 2.9 mL | Kp uu (clinical): 0.11 | fraction unbound at 4 h (in vitro): 0.87 | Cp(f) (Plasma): 700 nM | Kp uu at 4 h (in vivo [2]; brain): 0.028 | Kp uu at 4 h (in vivo [3]; csf): 0.018

C=CCOc1ccccc1OCC(O)CNC(C)C (stereo not given) [OXPRENOLOL]
Kp at 4 h (in vivo [1]; brain): 1.06 | Vdu (Brain): 11.8 mL | fraction unbound at 4 h (in vitro): 0.45 | Cp(f) (Plasma): 210 nM | Kp uu at 4 h (in vivo [2]; brain): 0.2 | Kp uu at 4 h (in vivo [3]; csf): 0.1

COc1ccc2c3c1O[C@H]1C(=O)CC[C@@]4(O)[C@@H](C2)N(C)CC[C@]314 [OXYCODONE]
fraction unbound at 4 h (in vitro): 0.87 | Cp(f) (Plasma): 330 nM

CN1CC[C@]23c4c5ccc(O)c4O[C@H]2C(=O)CC[C@@]3(O)[C@H]1C5 [OXYMORPHONE]
Kp at 4 h (in vivo [1]; brain and plasma): 2.29 | Vdu (Brain): 4 mL | fraction unbound at 4 h (in vitro): 0.73 | Cp(f) (Plasma): 240 nM | Kp uu at 4 h (in vivo [2]; brain and plasma): 0.79 | Kp uu at 4 h (in vivo [3]; CSF and plasma): 0.91

CCC(C(N)=O)(C(N)=O)c1ccccc1 [PHENYLETHYLMALONAMIDE]
Kp at 4 h (in vivo [1]; brain and plasma): 0.64 | Vdu (Brain): 0.9 mL | fraction unbound at 4 h (in vitro): 0.55 | Cp(f) (Plasma): 4300 nM | Kp uu at 4 h (in vivo [2]; brain and plasma): 1.25 | Kp uu at 4 h (in vivo [3]; CSF and plasma): 1.4

CC(C)NCC(O)COc1cccc2[nH]ccc12 (stereo not given) [PINDOLOL]
Kp at 4 h (in vivo [1]; brain and plasma): 1.56 | Kp uu (clinical): 0.52 | fraction unbound at 4 h (in vitro): 0.43 | Cp(f) (Plasma): 160 nM | Kp uu at 4 h (in vivo [2]; brain and plasma): 0.5 | Kp uu at 4 h (in vivo [3]; CSF and plasma): 0.11

CO[C@H]1/C=C/O[C@@]2(C)Oc3c(C)c(O)c4c(O)c(c(/C=N/N5CCN(C)CC5)c(O)c4c3C2=O)NC(=O)/C(C)=C\C=C\[C@H](C)[C@H](O)[C@@H](C)[C@@H](O)[C@@H](C)[C@H](OC(C)=O)[C@@H]1C [RIFAMPIN]
fraction unbound at 4 h (in vitro): 0.12 | Cp(f) (Plasma): 830 nM

O=C(O)c1cc(/N=N/c2ccc(S(=O)(=O)Nc3ccccn3)cc2)ccc1O [SULFASALAZINE]
fraction unbound at 4 h (in vitro): 0.005 | Cp(f) (Plasma): 13 nM | Kp uu at 4 h (in vivo [3]; CSF and plasma): 0.032

CCCC(C)C1(CC)C(=O)NC(=S)NC1=O (stereo not given) [THIOPENTAL]
fraction unbound at 4 h (in vitro): 0.19 | Cp(f) (Plasma): 550 nM

Cc1cn([C@H]2C[C@H](N=[N+]=[N-])[C@@H](CO)O2)c(=O)[nH]c1=O [ZIDOVUDINE]
fraction unbound at 4 h (in vitro): 0.64 | Cp(f) (Plasma): 1200 nM
